# Measured values: patent US10822318B2, “Lactone-based probes and methods of use thereof” (REGENTS OF THE UNIVERSITY OF MINNESOTA, priority 2017, dated 2020)
# Tests used:
# [1] = system: S. pneumoniae IU1945 PBPs; experiment: Competition assays with Boc-FL for S. pneumoniae IU1945 PBPs; assay type: cell-based; conditions: S. pneumoniae IU1945 cells
# Experimental: The protocol for SDS-PAGE gel preparation was previously described (Kocaoglu, O, et al. (2013) Curr Protoc Chem Biol 5, 239). Briefly, polyacrylamide gels were composed of 10% resolving gel (10.5 ml of 1.5 M Tris-HCl buffer pH 8.8, 10.5 ml of acrylamide:bis-acrylamide 29:1 (40% solution), 21 ml of H2O, 140 μl of 10% APS, 15 μl of tetramethylethylenediamine (TEMED)) and 4.5% stacking gel (2.5 ml of 0.5 M Tris-HCl buffer pH 6.8, 1.125 ml of acrylamide:bis-acrylamide 29:1 (40% solution), 6.375 ml of H2O, 30 μl of 10% APS, 10 μl of TEMED). Running parameters were 180 V, 400 mA, and 60 W for 1.5 h. Experiments to examine competition of acyl homoserine lactones or p-toluenesulfonic acid salts of the β-lactones with Boc-FL were performed with acrylamide:bis-acrylamide ratio of 37.5:1.
# Cells from 1.5 ml of culture were harvested by centrifugation (16,100×g for 2 min at RT) and washed with 1 ml of PBS, pH 7.4. Cell pellets were resuspended in 50 μl of PBS containing 5, 10, and 20 μg/ml of β-lactone p-toluenesulfonic salts and incubated for 40 min at RT. Cells were pelleted and washed in 1 ml of PBS. Next, the cells were resuspended in 50 μl of PBS containing 5 μg/ml Boc-FL and incubated for 10 min at RT. Finally, the cells were resuspended in 100 μl PBS containing 1 or 10 mg/ml lysozyme and incubated for 30 min at 37° C. […]
# S. pyogenes = conditions: mice infected with S. pyogenes; cited from earlier work
# E. coli = conditions: cited from earlier work
# PBP2x = target: T1, PBP2x (Streptococcus pneumoniae, UniProt P59676); experiment: Methicillin pre-treatment controls, gel-based analysis; assay type: cell-based, S. pneumoniae; conditions: 7FL labeling
# T1 construct: endogenous in cells; host or cells: S. pneumoniae IU1945 and E193 (Δpbp1b)
# Experimental: Cells from 1.5 ml of S. pneumoniae IU1945 and E193 cultures at exponential phase (OD620˜0.2) were harvested by centrifugation (16,100×g for 2 min at RT) and washed with 1 ml of PBS, pH 7.4. Cell pellets were resuspended in 50 μl of PBS containing 0.1 μg/ml of methicillin and incubated for 30 min at RT. Cells were pelleted and washed in 1 ml of PBS. Next, the cells were resuspended in 50 μl of PBS containing 1 or 5 μg/ml of lac-L-Phe-FL or 5 μg/ml Boc-FL (as control) and incubated for 20 min at RT (10 min at RT for Boc-FL). Finally, the cells were resuspended in 100 μl PBS containing 1 or 10 mg/ml lysozyme and incubated for 30 min at 37° C. Cells were lysed and sample preparation for SDS-PAGE gel-based analysis was performed as described.
# S. pneumoniae cells = experiment: 3D-SIM imaging of lactone probe labeled cells; assay type: cell-based; conditions: wild-type and Δpbp1b strains, ≈41 cells examined
# Experimental: Cells from an overnight culture were diluted to OD620 0.02 in 2 ml of fresh BHI prewarmed to 37° C. and incubated at 37° C. in an atmosphere of 5% CO2. At OD620 0.2, 1.5 ml of culture was added to a microfuge tube and centrifuged at room temperature for 5 min at 16000×g. The supernatant was discarded, the pellet was resuspended in 1 ml room temperature PBS, and the culture was centrifuged a second time. The supernatant was discarded and the pellet was resuspended in either 50 μl of PBS with 5 μg mL^−1 7FL or 100 μl PBS with 5 μg mL^−1 8T. The cells were incubated for 20 min at room temperature in the dark. After incubation the cells were spun and washed with 1 ml of PBS (7FL) or 1 ml of PBS containing 50 mM glucose (8T). The cells were spun a second time and washed with 200 μl of PBS (7FL) or 200 μl of PBS with 50 mM glucose (8T), and finally spun a third time and resuspended in 100 μl of cold (4° C.) GTE buffer (50 mM glucose, 20 mM Tris pH 7.5, 1 mM EDTA). The cells were spun down at 4° C., the supernatant was discarded, and the pellet was resuspended in 15 μl of Vectashield Hardest Antifade (Vector Labs) and kept on ice. 1.2 μl of cells in antifade was pipetted onto a clean coverslip, applied to a slide, and imaged via 3D-SIM. 3D-SIM was performed using the OMX 3D-SIM super-resolution system located in the Indiana University Bloomington Light Microscopy Imaging Center (www.indiana.edu/˜lmic/microscopes/index.html#OMX). The system used is equipped with four Photometrics Cascade II EMCCD cameras that allow simultaneous imaging of up to four colors, and is controlled by DV-OMX software, with image processing by Applied Precision softWoRx 6.0.0 software. Exposure times and % T settings for DAPI, Alexa 488, and Alexa 568 images were 5 ms and 100% for all three channels.
# For pre-treatment with methicillin followed by lactone probe labeling, duplicate 2 ml cultures of each strain were created and incubated as described above. At OD620 0.12, methicillin was added to a final concentration of 0.1 μg mL^−1 to one culture for each strain, and the strains were placed back in the incubator. After 20 min, all cultures were harvested, labeled, and imaged as described above.
# For labeling of cells with both lactone probes, the following changes were made: After a 20 min incubation with 7FL, the cells were spun down and washed once in 1 ml of PBS. The cells were spun again and resuspended in 100 μl of 8T in PBS at 5 μg mL^−1. The cells were incubated for 20 min at room temperature in the dark, and then washed and imaged as described above for 8T labeling.
# PBP1b = conditions: cited from earlier work
# PBP3 = conditions: cited from earlier work
# T1 sequence (P59676 whole entry): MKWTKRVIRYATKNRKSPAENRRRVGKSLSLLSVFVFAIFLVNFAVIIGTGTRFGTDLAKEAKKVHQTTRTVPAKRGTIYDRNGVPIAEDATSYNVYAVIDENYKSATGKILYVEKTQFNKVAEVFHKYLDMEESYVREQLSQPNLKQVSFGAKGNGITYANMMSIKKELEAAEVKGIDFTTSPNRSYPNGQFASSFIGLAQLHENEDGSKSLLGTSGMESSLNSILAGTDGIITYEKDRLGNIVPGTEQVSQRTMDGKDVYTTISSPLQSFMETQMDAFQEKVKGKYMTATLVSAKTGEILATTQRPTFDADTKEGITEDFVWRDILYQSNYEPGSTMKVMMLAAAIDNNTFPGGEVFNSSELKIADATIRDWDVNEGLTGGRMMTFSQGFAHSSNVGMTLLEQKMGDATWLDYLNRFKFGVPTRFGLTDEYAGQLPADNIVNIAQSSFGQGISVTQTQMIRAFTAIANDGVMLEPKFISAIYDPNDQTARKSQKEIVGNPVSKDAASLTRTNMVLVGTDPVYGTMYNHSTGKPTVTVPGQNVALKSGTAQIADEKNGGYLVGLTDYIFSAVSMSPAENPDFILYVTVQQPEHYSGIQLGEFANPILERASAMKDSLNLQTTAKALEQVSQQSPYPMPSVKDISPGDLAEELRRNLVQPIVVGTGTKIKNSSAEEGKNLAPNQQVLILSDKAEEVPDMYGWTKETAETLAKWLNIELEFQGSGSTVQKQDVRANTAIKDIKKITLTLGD
compound,measurement,setting,value
"CC(=O)N[C@@H]1C(=O)O[C@@H]1C [SQ 26,517]",PBP inhibition (competition with Boc-FL),[1],very weak inhibitor of PBP2a
"O=C(N[C@@H]1C(=O)O[C@@H]1Cc1ccc([N+](=O)[O-])cc1)c1cccc(O)c1O [Obafluorin, obafluorin]",protection of infected mice,S. pyogenes,provides protection
same,effect on cell morphology,E. coli,causes cell elongation
"COc1cccc(OC)c1C(=O)N[C@@H]1C(=O)N2[C@@H]1SC(C)(C)[C@@H]2C(=O)O [methicillin, reference compound]",PBP2x labeling following methicillin treatment,PBP2x,dramatically decreased
same,methicillin-treated late division cells displaying empty septal rings,S. pneumoniae cells; labeled with 7FL,> 98%
same,methicillin-treated late divisional cells showing empty septal rings,S. pneumoniae cells; labeled with 8T,> 98%
[^3H]benzylpenicillin,deacylation rate,PBP1b,5.6e-05 s⁻¹
same,deacylation rate,PBP3,5.7e-05 s⁻¹
